Test results: the NIST ThermoML archive (doi:10.1007/s10765-013-1491-2)
Where “and” joins values, the source holds several entries; their conditions need not be identical. Identical values can stand only once.

Conditions: 101.33 kPa, Liquid, Alternating current cell with electrodes

CCCCCC[n+]1ccn(C)c1.O=S(=O)([N-]S(=O)(=O)C(F)(F)F)C(F)(F)F
Conditions | electrical conductivity [S/m]
288.27 K | 0.136
293.13 K | 0.172
298.1 K | 0.216
303.18 K | 0.268
308.13 K | 0.326
313.08 K | 0.391
323.11 K | 0.544
333.01 K | 0.725

CCn1cc[n+](C)c1.O=S(=O)([N-]S(=O)(=O)C(F)(F)F)C(F)(F)F
Conditions | electrical conductivity
288.16 K | 0.644 S/m and 0.645 S/m
293.12 K | 0.768 S/m
298.08 K | 0.905 S/m
303.15 K | 1.06 S/m
308.11 K | 1.22 S/m
313.06 K | 1.39 S/m
323.07 K | 1.77 S/m
333.11 K | 2.2 S/m

CCOS(=O)(=O)[O-].CCn1cc[n+](C)c1 [1-ethyl-3-methylimidazolium ethyl sulfate]
Conditions | electrical conductivity [S/m]
288.15 K | 0.235
288.16 K | 0.235
293.12 K | 0.302
298.08 K | 0.381
303.15 K | 0.473
308.11 K | 0.576
313.07 K | 0.69
323.08 K | 0.961
333.11 K | 1.28

CCn1cc[n+](C)c1.O=S(=O)([O-])C(F)(F)F [1-ethyl-3-methylimidazolium trifluoromethanesulfonate]
Conditions | electrical conductivity [S/m]
288.15 K | 0.623
288.16 K | 0.629
293.11 K | 0.747
298.16 K | 0.886
303.12 K | 1.04
308.08 K | 1.2
313.16 K | 1.39
323.06 K | 1.78
333.1 K | 2.24
